The text below walks through data of patent US10590079B2, “Cyano-substituted indoles as LSD1 inhibitors” (Novartis AG, priority 2016, dated 2020).

pIC50: −log10 of the molar value. Where two headings read alike, the source gives them in different places.

One assay concerns Molm13 cell. The assay can be described thus: Anti-proliferation assay in Molm13 cell. The class given is cell-based, human. To be noted: 6 days, cell titer glow, read-out: (b) IC50 anti proliferative assay in molm13 cell. The protocol: Anti-Proliferation Assay in Molm13 Cell
After cell seeding, a compound of the present invention was added to the cell media (in concentrations ranging from 0 to 100 μM, 3× dilution series). After 6 days, 100 ul/well cell titer glow (Promega, cat#G7573) was added into the cell culture, and luminerence was read on Envision (Pelkin Elmer) to determine the viable cells. The percentage inhibition was calculated against the samples treated with DMSO.
Background: Cellular ATP, detected with luciferase, serves as a proxy for viable cell number.

A further assay has as its target T1, full-length LSD1 (Homo sapiens, UniProt O60341).
T1 construct: the full-length LSD1 and 0.5 μM FAD in reaction buffer
The assay can be described thus: FL-LSD1 LC-MS assay. The class given is biochemical. To be noted: 0.4 nM FL-LSD1, 0.25 μM FAD, 0.5 μM H3K4me1 peptide, 60 min; read-out: (a) IC50 LC-MS Qualified assay. The protocol: Representative compounds of the present invention were serially and separately diluted 3-fold in DMSO to obtain a total of twelve concentrations. […] A 5 μL solution of 1 μM of the peptide substrate H3K4me1 (histone H3[1-21]-biotin) in reaction buffer was added to each initiate reaction. […] The conversion ratio of H3K4me1 substrate to the H3K4me0 product was calculated by dividing the peak area of the H3K4me0 peptide by the total peak area of all those two peptides on the assumption that the ionization efficiency of those peptides is the same. The data were then fit to a dose response equation using the program Helios to get the IC50 values of the test compound.

In another assay the test system is CD11b. The experiment in a line: CD11b FACS assay. The assay is classed as cell-based. To be noted: Homo sapiens, THP-1; Thp1 cell, 96 hrs; read-out: (c) IC50 CD11b FACS assay. The protocol:
Representative compounds of the present invention were serially and separately diluted 5-fold in DMSO to obtain a total of 6 concentrations. Then the compounds were added to Thp1 cell cultured in 96-well round bottom plate (Costar, Cat#3099) at 1:1000 dilution to obtain the highest concentration of 10 μM. The cells were further cultured for 96 hrs before FACS procedure.
FACS protocol: FACS was performed using standard flowcytometry. Cell was collected and washed with FACS buffer twice (2% heat inactivated FBS in PBS) in 96-well plate, and stained with antibody against CD11b, or isotype control, then washed with FACS buffer for 3 times before reading on Guava 8HT (Merck Millipore) Results were analyzed using Flowjo, and mean fluoreance was calculated and normalized to the cells treated with DMSO. The fold value were then analyzed via Graphpad Prism and fit to a dose response curve to get IC50 value of the test compound. Antibodies for FACS: PE mouse IgG1 k chain (BD Bioscience, #555749), PE mouse anti human CD11b (BD Bioscience, #555388)

Consider `Cc1c(N)cccc1-c1cn(C2CCC(O)C2)c2ccc(C#N)cc12` (racemic) [Example 80, Trans-3-(3-amino-2-methylphenyl)-1-(3-hydroxycyclopentyl)-1H-indole-5-carbonitrile], for which the pIC50 in the assay on Molm13 cell (Homo sapiens, MOLM-13, 144 h) was 6.41; on full-length LSD1, 7.62.
`Cc1cc2c(cc1C#N)c(-c1cncc(N)c1C)cn2C1CCC(O)C1` (single isomer, unassigned) [Example 87, Cis-3-(5-amino-4-methylpyridin-3-yl)-1-(3-hydroxycyclopentyl)-6-methyl-1H-indole-5-carbonitrile]: the negative logarithm of the IC50 (pIC50) in the assay on Molm13 cell (Homo sapiens, MOLM-13, 144 h) was 7.12; on full-length LSD1, 7.82.
Turning to `Cc1cc2c(cc1C#N)c(-c1cncc(N)c1C)cn2C1CCC(O)C1` (single isomer, unassigned) [Example 88, Trans-3-(5-amino-4-methylpyridin-3-yl)-1-(3-hydroxycyclopentyl)-6-methyl-1H-indole-5-carbonitrile], the pIC50 with Molm13 cell was 7.05; on full-length LSD1 it was 7.82.
Take `COc1ccc(-n2cc(-c3cccc(N)c3C)c3cc(C#N)c(C)cc32)cc1` [Example 65, 3-(3-amino-2-methylphenyl)-1-(4-methoxyphenyl)-6-methyl-1H-indole-5-carbonitrile]: the pIC50 is 6.91 in the assay with Molm13 cell (Homo sapiens, MOLM-13, 144 h); 6.50 with CD11b; 8.52 at full-length LSD1.
On the same counts, the results for `COc1ccc(-n2cc(-c3cncc(N)c3C)c3cc(C#N)c(C)cc32)cc1` [Example 71, 3-(5-amino-4-methylpyridin-3-yl)-1-(4-methoxyphenyl)-6-methyl-1H-indole-5-carbonitrile] are 7.29, 6.10 and 8.52.
As to `CN[C@H]1CC[C@H](n2cc(-c3cccc(N)c3C)c3cc(C#N)c(C)cc32)CC1` [Example 78, Trans-3-(3-amino-2-methylphenyl)-6-methyl-1-(4-(methylamino)cyclohexyl)-1H-indole-5-carbonitrile], the negative-log IC50 (pIC50) in the assay on Molm13 cell (Homo sapiens, MOLM-13, 144 h) is 7.54.
With `Cc1c(N)cccc1-c1cn(C2CCCC(O)C2)c2ccc(C#N)cc12` (stereo not drawn) [Example 83, Trans-3-(3-amino-2-methylphenyl)-1-(3-hydroxycyclohexyl)-1H-indole-5-carbonitrile], the pIC50 was 6.57 with Molm13 cell (Homo sapiens, MOLM-13, 144 h) and 7.22 on full-length LSD1.
Take `Cc1cc2c(cc1C#N)c(-c1cccc(N)c1C)cn2[C@H]1CC[C@H](O)CC1` [Example 93, Trans-3-(3-amino-2-methylphenyl)-1-(4-hydroxycyclohexyl)-6-methyl-1H-indole-5-carbonitrile]: the pIC50 with CD11b is 7.14.
For the compound `Cc1cc2c(cc1C#N)c(-c1cncc(N)c1C)cn2[C@H]1CC[C@H](O)CC1` [Example 94, Trans-3-(5-amino-4-methylpyridin-3-yl)-1-(4-hydroxycyclohexyl)-6-methyl-1H-indole-5-carbonitrile], the negative logarithm of the IC50 (pIC50) in the assay on Molm13 cell (Homo sapiens, MOLM-13, 144 h) is 7.14; on full-length LSD1, 7.80.
Take `Cc1cc2c(cc1C#N)c(-c1cccc(N)c1C)cn2[C@H]1CC[C@@H](O)CC1` [Example 95, Cis-3-(3-amino-2-methylphenyl)-1-(4-hydroxycyclohexyl)-6-methyl-1H-indole-5-carbonitrile]: in the assay on Molm13 cell (Homo sapiens, MOLM-13, 144 h), the negative-log IC50 (pIC50) was 7.31.
As for `Cc1cc2c(cc1C#N)c(-c1cccc(N)c1C)cn2C1CCNCC1` [Example 97, 3-(3-amino-2-methylphenyl)-6-methyl-1-(piperidin-4-yl)-1H-indole-5-carbonitrile], the negative-log IC50 (pIC50) with Molm13 cell (Homo sapiens, MOLM-13, 144 h) was 6.03; on full-length LSD1, 7.85.
On to `Cc1cc2c(cc1C#N)c(-c1cccc(N)c1C)cn2[C@H]1C[C@H](O)C1` [Example 100, Trans-3-(3-amino-2-methylphenyl)-1-(3-hydroxycyclobutyl)-6-methyl-1H-indole-5-carbonitrile], for which the negative logarithm of the IC50 (pIC50) with Molm13 cell (Homo sapiens, MOLM-13, 144 h) is 7.32.

Broadly, the pIC50 is the IC50 on a negative log10 scale, so that one unit is a factor of ten.
